Reference: patent US20030162191A1, “Enzymes and uses relating thereto” (priority 2000, published 2003)

Tests used:
pH7 nSMase = molecular target: T1, pH7 nSMase (Homo sapiens, UniProt Q92485); assay: pH7 nSMase assay in the presence of C11AG (membranes from Jurkat cells, Tris pH6.5); format: biochemical; details: pH7 nSMase versus pH8 nSMase
T1 construct: For pH7 nSMase assays, membranes from Jurkat cells (human T-cell lymphoma) were used; endogenous in cells; host or cells: Jurkat (human T-cell lymphoma) membranes, Triton X-100 eluate
T1 sequence (Q92485 19-455): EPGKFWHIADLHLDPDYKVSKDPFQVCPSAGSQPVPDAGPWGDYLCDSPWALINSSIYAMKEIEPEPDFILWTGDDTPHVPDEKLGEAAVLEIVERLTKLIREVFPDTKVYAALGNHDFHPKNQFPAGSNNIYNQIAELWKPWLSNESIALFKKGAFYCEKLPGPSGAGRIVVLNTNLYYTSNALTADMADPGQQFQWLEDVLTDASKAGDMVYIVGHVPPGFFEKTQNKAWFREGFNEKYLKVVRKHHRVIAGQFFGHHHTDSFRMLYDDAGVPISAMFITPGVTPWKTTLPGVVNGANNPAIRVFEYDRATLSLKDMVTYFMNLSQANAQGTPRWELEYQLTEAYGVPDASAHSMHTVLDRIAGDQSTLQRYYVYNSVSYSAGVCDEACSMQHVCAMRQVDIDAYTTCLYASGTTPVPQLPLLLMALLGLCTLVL
Method: SMase activities were determined in the presence of 0, 1, 10, 100 or 1000 μg/ml C11AG. C11AG-acetate was used as a stock solution of 10 mg/ml in water.
For pH7 nSMase assays, membranes from Jurkat cells (human T-cell lymphoma) were used.
From each preparation 5 μg of protein were used for (1) a pH7 nSMase assay (in 50 μl 50 mM Tris pH6.5, 5 mM MgCl2, 1 mM NaF, 1 mM NaVO3, 0.1% Triton X 100, 20 nCi ^14C sphingomyelin), (2) a pH8 nSMase assay (in 50 μl 50 mM Tris pH8.5, 5 mM MgCl2, 1 mM NaF, 1 mM NaVO3, 0.1% Triton X 100, 20 nCi ^14C sphingomyelin) and (3) an acidic SMase assay (in 50 μl 50 mM NaH2PO4 pH5.0, 5 mM MgCl2, 1 mM NaF, 1 mM NaVO3, 0.1% Triton X 100, 20 nCi ^14C sphingomyelin).
After 30 minutes phosphorylcholine (PCH) was extracted by the addition of 2 volumes methanol/chloroform (2/1). PCH counts were determined in an aliquot of 10 μl after separation on TLC plates (Merck 60, F254, running solvent: 0.9% NaCl/methanol/NH4OH (50/70/5, V/V/V) in a Digital Autoradiograph. PCH counts of the uninhibited reaction were set 100% enzyme activity. Each assay was done in quadruplicate.

[1] = test system: Human T-cell lymphoma cells (Jurkat); assay: Stimulation of anti-APO-1 (anti-CD95) induced apoptosis in Jurkat cells; format: cell-based; details: C11AG at 1 μg/ml, 24 hours, 37° C., FIG. 7
Method: Human T-cell lymphoma cells (Jurkat) were seeded in 96-well plates at a density of 10^5 cells per ml. An antibody directed against CD95 (anti-APO-1) was added at various concentrations with and without C11AG at 1 μg/ml. After incubation at 37° C. for 24 hours, cell numbers were determined afer vital staining. By Nicoleti staining it was confirmed that dead cells had died due to apoptosis. All assays were done in triplicate.

[2] = test system: cells with or lacking pH8 nSMase; assay: Sensitivity of cells to C11AG according to pH8 nSMase expression; format: cell-based

Structure (SMILES): CCCCCCCCCCC=NNC(=N)N [C11AG, 1-(undecylidene-amino)guanidine]
- fold more active on pH7 nSMase than on pH8 nSMase (pH7 nSMase): 200-1000 fold
- induction of apoptosis by anti-APO-1 [1]: stimulated induction of apoptosis
- response to C11AG of cells which have both pH7 nSMase and pH8 nSMase ([2]; cells with both pH7 nSMase and pH8 nSMase): show resistance
- response to C11AG of cells lacking pH8 nSMase ([2]; solid tumour cells, T cell lymphoma cells, activated or autoreactive T cells): are sensitive
